# Results reported in patent publication US12687495B2, “Single cell selection and isolation” (ERASMUS UNIVERSITY MEDICAL CENTER ROTTERDAM, priority 2019, dated 2026).
# Columns and labels:
# [1] = UV-Vis absorption spectrum; type: physicochemical
# Description: Without wishing to be bound by theory, the chemical compound and the uncaging schematically proceeds as illustrated in FIG. 12. In a preferred embodiment, the photosensitizer moiety absorbs light of a wavelength from 360 nm-420 nm while the caged fluorophore moiety is essentially insensitive to light of a wavelength >400 nm. This typically means that the absorption coefficient of the photosensitizer as a wavelength of higher than 400 nm is more than 10 times, preferably more than 40 times as high as the absorption coefficient of the caged fluorophore moiety at the same wavelength.
# MCF10A cells = assay: Uncaging efficiency of caged rhodamine with or without thioxanthone in cells; type: cell-based; conditions: for photoactivation / fluorescent response of irradiated cells: cells incubated with 15 uM, 405 nm exposure (1000 J/cm^2)
# Method: FIGS. 11A and 11B illustrate images of cells incubated with a phototagging agent, with and without photosensitizer, respectively.
# For example, uncaging efficiency is determined by a relative decrease in the energy or intensity of light needed to uncage the phototagging agent. For example, a wavelength at which the amount of energy or intensity is compared is more than four hundred nanometer, e.g. 405 nm as shown in the comparative example of FIGS. 11A and 11B.
# The comparison is carried out by directly measuring uncaging efficiency in biological samples. The described experiment was conducted in mammalian cancer cell lines but can be generalized without loss of relevance to other mammalian cell types. The phototagging agent (caged rhodamine with thioxanthone) at 15 uM was incubated with MCF10A cells for 15 min. The caged moiety was then removed by irradiation with 405 nm CW light at 500-1500 J/cm^2. […] The uncaged rhodamine in the cells was imaged by 532 nm excitation (200 mW/0.35 cm^2).
# cells = assay: Cell permeability assay: fluorescence and retention of activated dye in phototagged cells; type: cell-based; conditions: 15 uM for 15 min, PBS rinse, 405 nm light (1000 J/cm^2), 532 nm excitation; FIG. 10B; listed as phototagging agent
# Description: The unreacted agent was then rinsed away with PBS (phosphate buffered Saline). […] After activation, fluorescence of photoactivated uncaged rhodamine was observed and imaged by 532 nm excitation (200 mW/0.35 cm^2).
smiles,measurement,setting,value
COc1cc(COC(=O)N2CCCc3cc4c(cc32)Oc2cc3c(cc2C42OC(=O)c4cc(C(=O)Nc5ccc6sc7ccccc7c(=O)c6c5)ccc42)CCCN3C(=O)OCc2cc(OC)c(OC)cc2[N+](=O)[O-])c([N+](=O)[O-])cc1OC [chemical compound A],absorption >400 nm,[1],has absorption >400 nm
same,light energy at which the caged moiety was removed (uncaging),"MCF10A cells; 405 nm CW light, 15 uM agent incubated with MCF10A cells for 15 min, uncaged rhodamine imaged by 532 nm excitation",500-1500 J/cm^2
same,uncaging efficiency compared to corresponding caged rhodamine without photosensitizer thioxanthone,"MCF10A cells; FIG. 10A, 405 nm",more than ten
same,photoactivation / fluorescent response of irradiated cells,MCF10A cells; listed as caged rhodamine conjugated with thioxanthone,a fluorescent response F could be measured
same,photoactivation / fluorescent response of irradiated cells,MCF10A cells; listed as phototagging agent,photoactivated
same,time the uncaged phototagging agent stays inside cells (photoactivated fluorescence observed),cells,seven
